# How the values were obtained:
# [1] = system: HES3 NKX2-5:GFP reporter hESC line derived cardiomyocytes; test: qRT-PCR analysis of atrial and ventricular gene expression in day 20 hPSC-derived cardiomyocytes; type: cell-based, human
# Protocol: To determine if retinoic acid signaling can specify an atrial fate in hPSC-derived cardiogenic populations generated with our embryoid-body (EB)-based protocol, all trans retinoic acid (RA) was added to the differentiation cultures at 4 different time points that represent the following developmental stages: mesoderm induction (day 3), cardiovascular specification (day 5), cardiac progenitor development (day 7) and emergence of contracting cardiomyocytes (day 9) (Kattman et al., 2011) (FIG. 1A). The HES3 NKX2-5: GFP reporter hESC line was used for these experiments to allow us to monitor and quantify cardiovascular development and to isolate GFP+ cardiomyocytes. At day 20 of culture, GFP+SIRPA+CD90− cardiomyocytes were isolated from the differentiated populations and analyzed by RTqPCR for expression of genes indicative of atrial and ventricular development. (FIGS. 1B-D and 8B-E).
# (§1) For cardiac differentiation, we used a modified version of our embryoid body (EB)-based protocol (Kattman et al., 2011). hPSC populations at 80%-90% confluence were dissociated into single cells (TrypLE, ThermoFisher) and re-aggregated to form EBs in StemPro-34 media (ThermoFisher) containing penicillin/streptomycin (1%, ThermoFisher), L-glutamine (2 mM, ThermoFisher), trans-ferrin (150 μg/ml, ROCHE), ascorbic acid (50 μg/ml, Sigma), and monothioglycerol (50 μg/ml, Sigma), ROCK inhibitor Y-27632 (10 μM, TOCRIS) and rhBMP4 (1 ng/ml, R&D) for 18 h on an orbital shaker. At day 1, the EBs were transferred to mesoderm induction media consisting of StemPro-34 with above supplements (-ROCK inhibitor Y-27632) and rhBMP4, rhActivinA (R&D) and rhbFGF (5 ng/ml, R&D) at the indicated concentrations. At day 3, the EBs were harvested, washed with IMDM and transferred to cardiac mesoderm specification media consisting of StemPro-34, the Wnt inhibitor IWP2 (1 μM, TOCRIS) and rhVEGF (10 ng/mL, R&D). At day 5, the EBs were transferred to Stem Pro-34 with rhVEGF (5 ng/ml) for another 7 days and then to Stem Pro-34 media without additional cytokines for further 8 days. At day 20, HES3-NKX2-5gfp/w-derived cardiomyocytes were analyzed and isolated based on the expression of NKX2-5:GFP and SIRPa and a lack of CD90. Cardiomyocytes generated from non-transgenic hPSC lines were analyzed and isolated as SIRPa+CD90− populations. Media was changed every 3 days. Cultures were incubated in a low oxygen environment (5% CO2, 5% O2, 90% N2) for first 12 days and a normoxic environment (5% CO2) for the following 8 days in total of 20 days. The EBs were cultured in ultra-low attachment 6-well dishes (Corning) throughout the differentiation for maintaining suspension cultures.
# Total RNA from hPSC-derived populations was isolated using RNAqueous-micro Kit including RNase-free DNase treatment (Ambion). RNA from dissected ventricular and atrial tissue of human fetal hearts was isolated using the TRIzol method (ThermoFisher) and treated with DNase (Ambion). Between 100 ng and […] of isolated RNA was reverse transcribed into cDNA using oligo (dT) primers and random hexamers and Superscript III Reverse Transcriptase (ThermoFisher). QRT-PCR was performed on an EP Real-Plex MasterCycler (Eppendorf) using QuantiFast SYBR Green PCR kit (QIAGEN). All experiments were prepared in duplicates and included a 10-fold dilution series of sonicated human genomic DNA standards ranging from 25 ng/ml to 2.5 μg/ml for evaluating the efficiency of PCR reaction and the copy number of each gene relative to the house keeping gene TBP. […]
# [2] = system: HES2 human embryonic stem cell derived EBs; test: ROH/RA response of HES2-derived EBs (day 20 flow cytometry and qRT-PCR); type: cell-based; conditions: treated days 3 to 5
# Text: (§2) To determine if the approach for optimizing atrial and ventricular differentiation based on ALDH activity and CD235a expression is broadly applicable, we next used it to generate these cardiomyocyte populations from the HES2 human embryonic stem cell and the MSC-iPS1 induced pluripotent stem cell lines. Titration studies identified 5B/2A and 5B/6A as optimal for atrial and ventricular inductions, respectively, for HES2 cells and 4B/4A as optimal for ventricular induction for MSCiPSC1 cells (FIGS. 7A, 7B, 7E, and 7F; Mendeley http://dx.doi.org/10.17632/7z7d5v2c3w.1). Optimization of atrial induction from the MSC-iPSC1 cells was more challenging, as all cytokine combinations promoted the development of a substantial CD235a+ population. One interpretation of these patterns is that the MSC-iPS1 cells have a high level of endogenous Nodal/Activin A signaling, resulting in the development of some CD235a+ cells under all conditions. To test this, we added the Nodal/Activin A/transforming growth factor beta (TGF-beta) inhibitor SB-431542 (SB) from days 3 to 5 to cells induced with 4B/1A.
# as §1, with “The EBs were cultured in ultra-low attachment 6-well dishes (Corning) throughout the differentiation for maintaining suspension cultures.” left out
# [3] = system: MSC-iPS1 induced pluripotent stem cell line derived EBs; test: ROH/RA response of MSC-iPS1-derived EBs (day 20 flow cytometry and qRT-PCR); type: cell-based, human; conditions: treated days 3 to 5
# Text: as §2
# as §1, with “The EBs were cultured in ultra-low attachment 6-well dishes (Corning) throughout the differentiation for maintaining suspension cultures.” left out
# [4] = RA added at days 3 and 5, day 20
# [5] = day 3 RA-treated mesoderm versus non-treated
structure (smiles),measurement,setting,value
"CC1=C(/C=C/C(C)=C/C=C/C(C)=C/C(=O)O)C(C)(C)CCC1 [RA, all trans retinoic acid]",expression of atrial ion channel gene KCNJ3,[1]; [4],upregulation
same,expression of ventricular-specific gene MYL2,[1]; [4],significant reduction
same,expression of pan-cardiomyocyte marker CTNT,"[1]; RA added at different time points, 10B/6A induced, day 20",None of the RA treatments significantly altered
same,"expression of atrial markers NR2F2, TBX5, NPPA, MYL7, CACNA1D, KCNA5, GJA5",[1]; [5],reverse pattern
same,expression of ventricular markers IRX4 and MYH7,[1]; [5],lower levels
same,response of ALDH+ mesoderm (atrial expression profile),"[2]; HES2, 5B/2A induced",responded to both ROH and RA
same,"response of CD235a+ mesoderm (MLC2V content, MYL2, IRX4, KCNJ3, NR2F2)","[2]; HES2, 5B/6A induced",both responded to RA
same,response of ALDH+ mesoderm (atrial expression profile),"[3]; MSC-iPS1, 4B/1A+SB induced",responded to both ROH and RA
same,"response of CD235a+ mesoderm (MLC2V content, MYL2, IRX4, KCNJ3, NR2F2)","[3]; MSC-iPS1, 4B/4A induced",both responded to RA

# — patent US20190336537A1, “GENERATING ATRIAL AND VENTRICULAR CARDIOMYOCYTE LINEAGES FROM HUMAN PLURIPOTENT STEM CELLS” (UNIVERSITY HEALTH NETWORK, priority 2016, published 2019)
